What was measured:
[1] = cited from earlier work; for Highest water content: water content varies in different conditions
[2] = Stability of crystalline form on storage, checked by XRPD; assay type: physicochemical; settings: for Solid form: 2 months, XRPD
Protocol: Approximately 10 mg of Form A of the present disclosure was weighed and stored at different conditions of 25° C./60% RH in open dish, 25° C./60% RH in closed dish, 40° C./75% RH in open dish, and 40° C./75% RH in closed dish. Crystalline forms were checked by XRPD.
Approximately 10 mg of Form D of the present disclosure was weighed and stored at different conditions of 25° C./60% RH in closed dish, 25° C./60% RH in open dish, 40° C./75% RH in closed dish. Crystalline form was checked by XRPD.
Approximately 10 mg of Form F of the present disclosure was weighed and stored at different conditions of 25° C./60% RH in closed dish, 25° C./60% RH in open dish, and 40° C./75% RH in closed dish, 40° C./75% RH in open dish. Crystalline forms were checked by XRPD.
Approximately 10 mg of Form G of the present disclosure was weighed and stored at 25° C./60% RH in closed dish. Crystalline forms were checked by XRPD.
Approximately 10 mg of Form CS15 of the present disclosure was weighed and stored at different conditions of 25° C./60% RH in open dish, 25° C./60% RH in closed dish. Crystalline forms were checked by XRPD.

[3] = Intrinsic dissolution rate in pH 2.5 HCl/NaCl aqueous solution; assay type: physicochemical; settings: for Cumulative dissolution / IDR (intrinsic dissolution rate): pH 2.5 HCl/NaCl, 37° C.; for Cumulative dissolution: 0.5 cm^2 pellet; for IDR (intrinsic dissolution rate): slope over 0-45 minutes
Protocol: (§1) Approximately 200 mg of Form A and Form I in WO2017002095A1 were added into the die, compressed at 10 kN and held for 1 minute to obtain a pellet having a surface area of 0.5 cm^2. The whole tool with the pellet was transferred to a dissolution apparatus to test the intrinsic dissolution rate. The slope (mg/min) was calculated according to the data within 0-45 minutes. Intrinsic dissolution rate (IDR, mg/min/cm^2) was further calculated according to the slope.
as §1, with “Form D” for “Form A”
as §1, with “Form F” for “Form A”, “intrinsic dissolution.” for “intrinsic dissolution rate.”
as §1, with “Form G” for “Form A”, “intrinsic dissolution.” for “intrinsic dissolution rate.”
as §1, with “Form CS15” for “Form A”, “intrinsic dissolution.” for “intrinsic dissolution rate.”

[4] = Compressibility (tensile strength of compressed tablet); assay type: physicochemical; settings: about 80 mg, φ6 mm round tooling, compressed at 10 kN
Protocol: (§2) Approximately 80 mg of Form A and Form I in WO2017002095A1 were weighed into the dies of a φ6 mm round tooling, compressed at 10 kN manually, then stored in a desiccator for 24 hours until complete elastic recovery. Radial crushing force (hardness, H) was tested with an intelligent tablet hardness tester. Diameter (D) and thickness (L) were tested with a caliper. Tensile strength of the powder that with different hardness was calculated with the following formula: T=2H/πDL. Under a certain force, the greater the tensile strength, the better the compressibility.
as §2, with “Form D” for “Form A”, “manually, and” for “manually,”, “powder” for “powder that”
as §2, with “of Form F and Form” for “of Form A and Form”, “kN manually, and then stored” for “kN manually, then stored”, “tested with caliper. Tensile” for “tested with a caliper. Tensile”, “the powder with different” for “the powder that with different”
Approximately 80 mg of Form G and Form I of WO2017002095A1 were weighed into the dies of a φ6 mm round tooling, compressed at 10 kN manually, and then stored in a desiccator for 24 hours until complete elastic recovery. Radial crushing force (hardness, H)) was tested with an intelligent tablet hardness tester. Diameter (D) and thickness (L) were tested with caliper. Tensile strength of the powder with different hardness was calculated with the following formula: T=2H/πDL. Under a certain force, the greater the tensile strength, the better the compressibility.
as §2, with “of Form CS15 and Form” for “of Form A and Form”, “kN manually, and then stored” for “kN manually, then stored”, “tested with caliper. Tensile” for “tested with a caliper. Tensile”, “the powder with different” for “the powder that with different”

[5] = Adhesiveness (amount of material sticking to the punch); assay type: physicochemical; settings: about 30 mg, φ8 mm round tooling, 10 kN, compression repeated twice
Protocol: (§3) Approximately 30 mg of Form A and Form I in WO2017002095A1 were weighed, added into the dies of a φ8 mm round tooling, compressed at 10 kN and held for about 30 s. The amount of material sticking to the punch was weighed. The compression was repeated twice and the cumulative amount and average amount of material sticking to the punch during the compression were recorded.
as §3, with “Form F” for “Form A”
as §3, with “Form G” for “Form A”

Cumulative dissolution ([3]; 0 min) | Cumulative dissolution ([3]; 5 min) | Cumulative dissolution ([3]; 10 min) | Cumulative dissolution ([3]; 15 min) | Cumulative dissolution ([3]; 20 min) | Cumulative dissolution ([3]; 25 min) | Cumulative dissolution ([3]; 30 min) | Cumulative dissolution ([3]; 35 min) | Cumulative dissolution ([3]; 45 min) | IDR (intrinsic dissolution rate) [3] | Tensile strength [4] | SMILES | Highest water content [1] | Stability of the crystalline form ([1]; as disclosed in WO2017002095A1) | other results
– | – | – | – | – | – | – | – | – | – | – | CC#CC(=O)N1CCC[C@H]1c1nc(-c2ccc(C(=O)Nc3ccccn3)cc2)c2c(N)nccn12 [Crystalline form II, (S)-4-(8-amino-3-(1-(but-2-ynoyl)pyrrolidin-2-yl)imidazo[1,5-a]pyrazin-1-yl)-N-(pyridin-2-yl)benzamide] | 10% | – | Flowability ([1]; as disclosed in WO2017002095A1): poor
– | – | – | – | – | – | – | – | – | – | – | CC#CC(=O)N1CCC[C@H]1c1nc(-c2ccc(C(=O)Nc3ccccn3)cc2)c2c(N)nccn12 [Crystalline form III, (S)-4-(8-amino-3-(1-(but-2-ynoyl)pyrrolidin-2-yl)imidazo[1,5-a]pyrazin-1-yl)-N-(pyridin-2-yl)benzamide] | 8% | unstable | –
– | – | – | – | – | – | – | – | – | – | – | CC#CC(=O)N1CCC[C@H]1c1nc(-c2ccc(C(=O)Nc3ccccn3)cc2)c2c(N)nccn12 [Crystalline form IV, (S)-4-(8-amino-3-(1-(but-2-ynoyl)pyrrolidin-2-yl)imidazo[1,5-a]pyrazin-1-yl)-N-(pyridin-2-yl)benzamide] | – | unstable | –
0.00 mg | 0.70 mg | 1.73 mg | 2.82 mg | 3.57 mg | 4.77 mg | 6.26 mg | 7.36 mg | 9.72 mg | 0.4112 mg/min/cm^2 | 0.83 MPa | CC#CC(=O)N1CCC[C@H]1c1nc(-c2ccc(C(=O)Nc3ccccn3)cc2)c2c(N)nccn12 [Form D, (S)-4-(8-amino-3-(1-(but-2-ynoyl)pyrrolidin-2-yl)imidazo[1,5-a]pyrazin-1-yl)-N-(pyridin-2-yl)benzamide] | – | – | Time kept stable (crystalline state doesn't change) ([2]; 25° C./60% RH in closed dish): at least 2 months; Solid form ([2]; 25° C./60% RH in closed dish): Form D; Chemical purity on storage ([2]; 25° C./60% RH in open and closed dishes, at least 2 months): remains substantially unchanged; Time kept stable (crystalline state doesn't change) ([2]; 25° C./60% RH in open dish): at least 2 months; Solid form ([2]; 25° C./60% RH in open dish): Form D; Time kept stable (crystalline state doesn't change) ([2]; 40° C./75% RH in closed dish): at least 2 months; Solid form ([2]; 40° C./75% RH in closed dish): Form D; IDR relative to that of Form I in WO2017002095A1 ([3]; pH 2.5 HCl/NaCl solution): 1.1 times
0.00 mg | 0.92 mg | 1.64 mg | 2.81 mg | 3.66 mg | 4.62 mg | 5.58 mg | 6.40 mg | 8.16 mg | 0.3656 mg/min/cm^2 | Unable to be compressed | CC#CC(=O)N1CCC[C@H]1c1nc(-c2ccc(C(=O)Nc3ccccn3)cc2)c2c(N)nccn12 [Form I in WO2017002095A1, (S)-4-(8-amino-3-(1-(but-2-ynoyl)pyrrolidin-2-yl)imidazo[1,5-a]pyrazin-1-yl)-N-(pyridin-2-yl)benzamide, reference compound] | – | – | Average amount (material sticking to the punch) [5]: 45 µg; Cumulative amount (material sticking to the punch) [5]: 90 µg

From US11091494B2, “Crystal form of acalabrutinib and preparation method and use thereof” (Crystal Pharmaceutical (Suzhou) Co., Ltd., priority 2018, dated 2021)
